Measured values from PubChem BioAssay (NCI).
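Cultured in 96-well plates, cells were exposed to test compound for 48 hours across five concentrations. TGI: concentration producing complete growth inhibition.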 Where a SMILES comes first, the peptide text is derived from it. [ ]: non-standard residue; d: D form. The star is where a group is joined. ξ: configuration not given here. ξF = NC(Cc1ccccc1)C(=O)O; Cbz = O=C(OCc1ccccc1)*; Aib = CC(C)(N)C(=O)O; NHNH2 = NN*

How the values were obtained:
Assay in all cases: NCI-60 cell line screen, 48 h
[1] = tested on: HT29 colon
[2] = tested on: MCF7 breast
[3] = tested on: OVCAR-4 ovarian
[4] = tested on: SNB-19 CNS
[5] = tested on: SW-620 colon
[6] = tested on: NCI-H23 lung
[7] = tested on: SNB-75 CNS
[8] = tested on: TK-10 renal
[9] = tested on: UACC-257 melanoma
[10] = tested on: COLO 205 colon
[11] = tested on: U251 CNS
[12] = tested on: MALME-3M melanoma
[13] = tested on: UO-31 renal
[14] = tested on: HCT-15 colon
[15] = tested on: RXF 393 renal
[16] = tested on: CCRF-CEM leukemia
[17] = tested on: HCT-116 colon
[18] = tested on: SK-MEL-5 melanoma
[19] = tested on: A498 renal
[20] = tested on: EKVX NSCLC

Measured: TGI

COc1ccc(N=Nc2c(C)c(C#N)c(=S)n(C3OC(CO)C(O)C(O)C3O)c2-c2ccccc2)cc1 (configuration not stated)
94 µM: [17]
49.1 µM: [7]
27.8 µM: [18]
86.1 µM: [11]
63.1 µM: [12]
94.8 µM: [8]
84.7 µM: [2]
65.9 µM: [15]
44.5 µM: [19]
98 µM: [6]
not listed: [20]
> 100 µM: all other assays above

Cc1ccc(NC(Nc2ccc(C)cc2C)=C(C(Cl)=C(Cl)Cl)[N+](=O)[O-])c(C)c1
33.3 µM: [1]
22.1 µM: [7]
29.8 µM: [20]
36.3 µM: [19]
35.7 µM: [9]
33 µM: [8]
31.8 µM: [12]
> 100 µM: [2]
14.4 µM: [18]
30 µM: [4]
33.1 µM: [5]
26.7 µM: [17]
26.6 µM: [13]
32 µM: [10]
20 µM: [6]
33.2 µM: [3]
32.3 µM: [14]
32.6 µM: [15]
15.2 µM: [16]

C=CCn1c(-c2ccc([N+](=O)[O-])cc2)cs/c1=N\C(P(=O)(O)O)P(=O)(O)O
not listed: [3]
> 100 µM: all other assays above

CC(O)(Cc1ccccc1C#N)Cc1ccccc1C#N
98.9 µM: [7]
not listed: [6] | [13] | [16]
> 100 µM: all other assays above

Cc1cc(S(=O)(=O)Nc2n[nH]c(Nc3ccc(Cl)cc3)n2)c(S)cc1Cl
> 100 µM: all assays above

COc1ccccc1NC(=S)NN=C(C)c1cccc(C(C)=NNC(=S)Nc2ccccc2OC)n1
93 µM: [19]
74.3 µM: [3]
32.7 µM: [18]
11.1 µM: [17]
47.6 µM: [15]
93.9 µM: [9]
40.6 µM: [12]
not listed: [8]
> 100 µM: all other assays above

CN(C)CCCN1C(=S)N(CCCN(C)C)c2c3ccccc3nc3c([N+](=O)[O-])ccc1c23
17.8 µM: [15]
25.1 µM: [20]
19.4 µM: [2]
27.9 µM: [3] | [13]
22.9 µM: [19]
20.7 µM: [11]
18.8 µM: [18]
23.7 µM: [6]
21.9 µM: [14]
26 µM: [4]
20.3 µM: [9]
12 µM: [1]
24.2 µM: [8]
> 100 µM: [16]
17.4 µM: [5]
16 µM: [17]
6.69 µM: [12]
4.8 µM: [10]
23.1 µM: [7]

COC(=O)C1CCC(=O)N1CN(C(C)=O)c1ccccc1Cl (configuration not stated)
not listed: [16]
> 100 µM: all other assays above

CC(C)C1C(=O)N(c2c(F)c(F)c(F)c(F)c2F)C(=S)N1CCS(=O)c1ccccc1 (configuration not stated)
29.9 µM: [10]
27.3 µM: [18]
30.6 µM: [19]
42.3 µM: [16]
35.3 µM: [2]
31.1 µM: [3]
34.7 µM: [17]
35.4 µM: [15]
33.3 µM: [6]
30.2 µM: [12]
28.6 µM: [13]
52 µM: [8]
31.8 µM: [14]
35.5 µM: [5] | [9]
34.6 µM: [4]
31.3 µM: [20]
28 µM: [11]
27.8 µM: [1]
> 58.7 µM: [7]

O=C(O)CCCC(=O)Nn1c(Cc2ccc(Cl)cc2)n[nH]c1=O
not listed: [4] | [7]
> 100 µM: all other assays above

NC(Cc1ccc(OCc2ccccc2)cn1)C(=O)O (configuration not stated)
not listed: [3] | [7]
> 100 µM: all other assays above

O=C1CSC(/C=C/c2ccccc2)N1c1nc2cc3sc(N4C(=O)CSC4/C=C/c4ccccc4)nc3cc2s1 (configuration not stated)
> 67 µM: [1]
> 29.8 µM: [10]
> 63.5 µM: [16]
> 80.9 µM: [20]
> 100 µM: all other assays above

CC(=O)Nc1c(S(=O)(=O)c2ccccc2)c(C)c(C)n1CCN(C)C
> 100 µM: all assays above

CCCCNC(=O)c1cc2c(cc1Cl)Sc1nccn1S2(=O)=O
63.7 µM: [18]
> 100 µM: all other assays above

C=C=C(CC1CCCCC1=O)S(=O)(=O)c1ccccc1 (configuration not stated)
> 9.53 µM: [5]
7.24 µM: [16]
> 4.94 µM: [17]
> 10 µM: all other assays above

O=c1ccn(CC2(CO)CCC2)c(=O)[nH]1
not listed: [4]
> 100 µM: all other assays above

CC[C@H](C)[C@H]1NC(=O)[C@@H](NC(=O)[C@@H](CC(C)C)N(C)C(=O)C2CCCN2C(=O)[C@H](C)O)[C@@H](C)OC(=O)[C@H](Cc2ccc(OC)cc2)N(C)C(=O)[C@@H]2CCCN2C(=O)[C@H](CCCCNC(=O)OCc2ccccc2)NC(=O)[C@H](C)C(=O)[C@H](C(C)C)OC(=O)C[C@@H]1O (some centres not stated)
20.1 µM: [12]
16.4 µM: [1]
17.6 µM: [11]
18.9 µM: [10]
20.2 µM: [17]
not listed: [7]
> 25 µM: all other assays above

CC(NC(=O)/C(=C/c1ccccc1)NC(=O)c1ccccc1)C(=O)O (configuration not stated)
not listed: [3] | [8]
> 100 µM: all other assays above

S=c1[nH]nc(CNc2ccc(-c3n[nH]c(=S)n3-c3ccc(Cl)cc3)cc2)n1-c1ccc(Cl)cc1
32.8 µM: [17]
65 µM: [18]
66.7 µM: [1]
32.4 µM: [13]
59.9 µM: [12]
38.9 µM: [10]
not listed: [16]
> 100 µM: all other assays above

O=c1oc2ccccc2nc1/C=C(\O)c1ccc(Cl)cc1
not listed: [5]
> 100 µM: all other assays above

O=c1[nH]c(=O)n(COCc2ccccc2)c2ccsc12
not listed: [6] | [13]
> 100 µM: all other assays above

CC(C)(NC(=O)OCc1ccccc1)C(=O)NC(Cc1ccccc1)C(=O)NN (configuration not stated) (Cbz-[Aib]-[ξF]-NHNH2)
not listed: [17]
> 100 µM: all other assays above

COC(=O)/C(C#N)=C(\Nc1ccccc1)N1CCOCC1
not listed: [16]
> 100 µM: all other assays above

CC#CC(O)(C(=O)OCCCN(C)C)C1CCCCC1 (configuration not stated)
not listed: [3]
> 100 µM: all other assays above
